Results taken from patent publication US12048709B2 (scPharmaceuticals Inc., priority 2019, dated 2024).
Where two headings read alike, the source gives them in different places.

What was measured:
[1] = Study 4
Protocol: (§1) Samples were tumbled for 48 hours at ambient conditions and protected from light.
A full factorial DOE study was performed to determine the optimal amounts of NMP, benzyl alcohol and buffer (tromethamine) required to produce the highest solubility. Any potential synergistic effects stemming from various excipient combinations were also investigated.

[2] = for Apparent pH: 2% Benzyl Alcohol
Protocol: as §1

[3] = not given; remark: listed apart in the source
[4] = 200 mM Sodium Phosphate, target pH 6.0, t24 h
[5] = 200 mM Tromethamine/HCl, target pH 8.5, t2 h

With `NS(=O)(=O)c1cc(C(=O)O)c(NCc2ccco2)cc1Cl` [furosemide, 4-chloro-2-(furan-2-ylmethylamino)-5-sulfamoyl-benzoic acid] the pH variability [1] was “up to 0.3 pH units”, the “Apparent pH” value ([2]; 100 mM Tromethamine pH 5.0, 25% NMP, t2 h) was 5.0 and the “Apparent pH” value ([2]; 100 mM Tromethamine pH 5.0, 25% NMP, t24 h) was 4.6. The “Apparent pH” value ([2]; 100 mM Tromethamine pH 5.0, 25% NMP, t48 h) was 5.1, the “Apparent pH” value ([2]; 100 mM Tromethamine pH = 4.0, 25% NMP, t2 h) was 3.9 and the “Apparent pH” value ([2]; 100 mM Tromethamine pH = 4.0, 25% NMP, t24 h) was 3.6. The “Apparent pH” value ([2]; 100 mM Tromethamine pH = 4.0, 25% NMP, t48 h) was 4.7, the pH variability ([2]; Study 6, pH 4.0 test samples) was 0.7 units and the Osmolarity (~50 mM Potassium Phosphate, target pH 6.0, t2 h) was 108 mOsm/Kg. The Osmolarity (~50 mM Potassium Phosphate, target pH 6.0, t24 h) was 105 mOsm/Kg, the Osmolarity (~50 mM Potassium Phosphate, target pH 6.0, t48 h) was 115 mOsm/Kg and the Osmolarity (~50 mM Potassium Phosphate, target pH 7.4, t2 h) was 193 mOsm/Kg. For the same molecule, the Osmolarity (~50 mM Potassium Phosphate, target pH 7.4, t24 h) was 190 mOsm/Kg, the Osmolarity (~50 mM Potassium Phosphate, target pH 7.4, t48 h) was 213 mOsm/Kg and the Osmolarity (~50 mM Potassium Phosphate, target pH 8.5, t2 h) was 265 mOsm/Kg. For the same molecule, the Osmolarity (~50 mM Potassium Phosphate, target pH 8.5, t24 h) was 255 mOsm/Kg, the Osmolarity (~50 mM Potassium Phosphate, target pH 8.5, t48 h) was 283 mOsm/Kg and the Osmolarity (~50 mM Sodium Phosphate, target pH 6.0, t2 h) was 212 mOsm/Kg. For the same molecule, the Osmolarity (~50 mM Sodium Phosphate, target pH 6.0, t24 h) was 118 mOsm/Kg, the Osmolarity (~50 mM Sodium Phosphate, target pH 6.0, t48 h) was 141 mOsm/Kg and the Osmolarity (~50 mM Sodium Phosphate, target pH 7.4, t2 h) was 232 mOsm/Kg. The Osmolarity (~50 mM Sodium Phosphate, target pH 7.4, t24 h) was 233 mOsm/Kg, the Osmolarity (~50 mM Sodium Phosphate, target pH 7.4, t48 h) was 237 mOsm/Kg and the Osmolarity (~50 mM Sodium Phosphate, target pH 8.5, t2 h) was 241 mOsm/Kg. It also gave an Osmolarity (~50 mM Sodium Phosphate, target pH 8.5, t24 h) of 242 mOsm/Kg, an Osmolarity (~50 mM Sodium Phosphate, target pH 8.5, t48 h) of 276 mOsm/Kg and an Osmolarity (~50 mM Tromethamine/HCl, target pH 6.0, t2 h) of 124 mOsm/Kg. For the same molecule, the Osmolarity (~50 mM Tromethamine/HCl, target pH 6.0, t24 h) was 129 mOsm/Kg, the Osmolarity (~50 mM Tromethamine/HCl, target pH 6.0, t48 h) was 133 mOsm/Kg and the Osmolarity (~50 mM Tromethamine/HCl, target pH 7.4, t2 h) was 165 mOsm/Kg. It also gave an Osmolarity (~50 mM Tromethamine/HCl, target pH 7.4, t24 h) of 181 mOsm/Kg, an Osmolarity (~50 mM Tromethamine/HCl, target pH 7.4, t48 h) of 186 mOsm/Kg and an Osmolarity (~50 mM Tromethamine/HCl, target pH 8.5, t2 h) of 242 mOsm/Kg. For the same molecule, the Osmolarity (~50 mM Tromethamine/HCl, target pH 8.5, t24 h) was 239 mOsm/Kg, the Osmolarity (~50 mM Tromethamine/HCl, target pH 8.5, t48 h) was 258 mOsm/Kg and the Osmolarity ([3]; 200 mM Citrate, target pH 6.0, t2 h) was 516 mOsm/kg. The Osmolarity ([3]; 200 mM Citrate, target pH 6.0, t24 h) was 533 mOsm/kg, the Osmolarity ([3]; 200 mM Citrate, target pH 6.0, t48 h) was 557 mOsm/kg and the Osmolarity ([3]; 200 mM Citrate, target pH 7.4, t2 h) was 488 mOsm/kg. It also gave an Osmolarity ([3]; 200 mM Citrate, target pH 7.4, t24 h) of 484 mOsm/kg, an Osmolarity ([3]; 200 mM Citrate, target pH 7.4, t48 h) of 549 mOsm/kg and an Osmolarity ([3]; 200 mM Histidine/HCl, target pH 6.0, t2 h) of 441 mOsm/kg. For the same molecule, the Osmolarity ([3]; 200 mM Histidine/HCl, target pH 6.0, t24 h) was 392 mOsm/kg, the Osmolarity ([3]; 200 mM Histidine/HCl, target pH 6.0, t48 h) was 477 mOsm/kg and the Osmolarity ([3]; 200 mM Histidine/HCl, target pH 7.4, t2 h) was 588 mOsm/kg. The Osmolarity ([3]; 200 mM Histidine/HCl, target pH 7.4, t24 h) was 584 mOsm/kg, the Osmolarity ([3]; 200 mM Histidine/HCl, target pH 7.4, t48 h) was 616 mOsm/kg and the Osmolarity ([3]; 200 mM Histidine/HCl, target pH 8.5, t2 h) was 553 mOsm/kg. For the same molecule, the Osmolarity ([3]; 200 mM Histidine/HCl, target pH 8.5, t24 h) was 558 mOsm/kg, the Osmolarity ([3]; 200 mM Histidine/HCl, target pH 8.5, t48 h) was 678 mOsm/kg and the Osmolarity ([3]; 200 mM Potassium Phosphate, target pH 6.0, t2 h) was 384 mOsm/kg. It also gave an Osmolarity ([3]; 200 mM Potassium Phosphate, target pH 6.0, t24 h) of 383 mOsm/kg, an Osmolarity ([3]; 200 mM Potassium Phosphate, target pH 6.0, t48 h) of 376 mOsm/kg and an Osmolarity ([3]; 200 mM Potassium Phosphate, target pH 7.4, t2 h) of 462 mOsm/kg. The Osmolarity ([3]; 200 mM Potassium Phosphate, target pH 7.4, t24 h) was 471 mOsm/kg, the Osmolarity ([3]; 200 mM Potassium Phosphate, target pH 7.4, t48 h) was 481 mOsm/kg and the Osmolarity ([3]; 200 mM Potassium Phosphate, target pH 8.5, t2 h) was 487 mOsm/kg. The Osmolarity ([3]; 200 mM Potassium Phosphate, target pH 8.5, t24 h) was 497 mOsm/kg, the Osmolarity ([3]; 200 mM Potassium Phosphate, target pH 8.5, t48 h) was 423 mOsm/kg and the Osmolarity ([3]; 200 mM Sodium Phosphate, target pH 6.0, t2 h) was 388 mOsm/kg. The “Apparent pH” value [3, 4] was 5.1, the Osmolarity [3, 4] was 399 mOsm/kg and the Osmolarity ([3]; 200 mM Sodium Phosphate, target pH 6.0, t48 h) was 393 mOsm/kg. It also gave an Osmolarity ([3]; 200 mM Sodium Phosphate, target pH 7.4, t2 h) of 330 mOsm/kg, an Osmolarity ([3]; 200 mM Sodium Phosphate, target pH 7.4, t24 h) of 310 mOsm/kg and an Osmolarity ([3]; 200 mM Sodium Phosphate, target pH 7.4, t48 h) of 310 mOsm/kg. It also gave an Osmolarity ([3]; 200 mM Sodium Phosphate, target pH 8.5, t2 h) of 282 mOsm/kg, an Osmolarity ([3]; 200 mM Sodium Phosphate, target pH 8.5, t24 h) of 267 mOsm/kg and an Osmolarity ([3]; 200 mM Sodium Phosphate, target pH 8.5, t48 h) of 285 mOsm/kg. For the same molecule, the Osmolarity ([3]; 200 mM Tromethamine, target pH 6.0, t2 h) was 403 mOsm/kg, the Osmolarity ([3]; 200 mM Tromethamine, target pH 6.0, t24 h) was 406 mOsm/kg and the Osmolarity ([3]; 200 mM Tromethamine, target pH 6.0, t48 h) was 446 mOsm/kg. The Osmolarity ([3]; 200 mM Tromethamine, target pH 7.4, t2 h) was 434 mOsm/kg, the Osmolarity ([3]; 200 mM Tromethamine, target pH 7.4, t24 h) was 481 mOsm/kg and the Osmolarity ([3]; 200 mM Tromethamine, target pH 7.4, t48 h) was 482 mOsm/kg. The Osmolarity ([3]; 200 mM Tromethamine, target pH 8.5, t2 h) was 403 mOsm/kg, the Osmolarity ([3]; 200 mM Tromethamine, target pH 8.5, t24 h) was 347 mOsm/kg and the Osmolarity ([3]; 200 mM Tromethamine, target pH 8.5, t48 h) was 433 mOsm/kg. It also gave an Osmolarity ([3]; 200 mM Tromethamine/HCl, target pH 6.0, t2 h) of 121 mOsm/kg, an Osmolarity ([3]; 200 mM Tromethamine/HCl, target pH 6.0, t24 h) of 114 mOsm/kg and an Osmolarity ([3]; 200 mM Tromethamine/HCl, target pH 6.0, t48 h) of 127 mOsm/kg. It also gave an Osmolarity ([3]; 200 mM Tromethamine/HCl, target pH 7.4, t2 h) of 232 mOsm/kg, an Osmolarity ([3]; 200 mM Tromethamine/HCl, target pH 7.4, t24 h) of 215 mOsm/kg and an Osmolarity ([3]; 200 mM Tromethamine/HCl, target pH 7.4, t48 h) of 233 mOsm/kg. For the same molecule, the “Apparent pH” value [3, 5] was 8.8, the Osmolarity [3, 5] was 177 mOsm/kg and the Osmolarity ([3]; 200 mM Tromethamine/HCl, target pH 8.5, t24 h) was 257 mOsm/kg. It also gave an Osmolarity ([3]; 200 mM Tromethamine/HCl, target pH 8.5, t48 h) of 252 mOsm/kg.
